Results reported in article PMC10412597, “Small molecule branched-chain ketoacid dehydrogenase kinase (BDK) inhibitors with opposing effects on BDK protein levels” (Nature Communications, 2023).

Experiments:
Parameters in all cases: Invitrogen kinase panel, per cent inhibition of kinase activity
Conditions in all cases: 10 µM, inhibitor
ABL1 = ABL1 (Homo sapiens, UniProt P00519)
Experimental: (§1) To discover a potent and selective BDK inhibitor, a subset of the Pfizer compound collection was screened. […] Off target activity was assessed in both CEREP and kinase panels (Supplementary Tables 2, 3).

AURKB = AURKB (Homo sapiens, UniProt Q96GD4)
Summary of the method: (§2)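 Activity was measured in a kinase selectivity panel. The data come from off-target testing of the same BDK inhibitors.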

CAMK2A = CAMK2A (Homo sapiens, UniProt Q9UQM7)
Chain of CAMK2A (Q9UQM7 whole entry): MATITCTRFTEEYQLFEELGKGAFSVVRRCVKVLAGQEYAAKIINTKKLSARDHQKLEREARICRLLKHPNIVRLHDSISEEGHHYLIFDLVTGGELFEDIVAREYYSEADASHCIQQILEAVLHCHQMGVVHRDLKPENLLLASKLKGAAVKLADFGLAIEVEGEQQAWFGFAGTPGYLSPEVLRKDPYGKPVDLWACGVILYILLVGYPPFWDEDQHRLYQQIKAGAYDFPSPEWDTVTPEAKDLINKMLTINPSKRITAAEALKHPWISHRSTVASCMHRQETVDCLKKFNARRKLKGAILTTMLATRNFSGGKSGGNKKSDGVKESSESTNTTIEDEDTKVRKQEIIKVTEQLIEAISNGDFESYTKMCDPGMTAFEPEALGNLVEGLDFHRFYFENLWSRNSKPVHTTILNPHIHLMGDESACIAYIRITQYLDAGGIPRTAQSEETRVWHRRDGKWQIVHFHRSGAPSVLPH
Experimental: as §1

CDK2/Cyclin-A = CDK2/Cyclin-A (Homo sapiens, UniProt P24941)
Experimental: as §1

[1] = biological target: T1, Epidermal Growth Factor Receptor (Homo sapiens, UniProt P00533)
T1 construct: gene EGFR
T1 sequence (P00533 whole entry): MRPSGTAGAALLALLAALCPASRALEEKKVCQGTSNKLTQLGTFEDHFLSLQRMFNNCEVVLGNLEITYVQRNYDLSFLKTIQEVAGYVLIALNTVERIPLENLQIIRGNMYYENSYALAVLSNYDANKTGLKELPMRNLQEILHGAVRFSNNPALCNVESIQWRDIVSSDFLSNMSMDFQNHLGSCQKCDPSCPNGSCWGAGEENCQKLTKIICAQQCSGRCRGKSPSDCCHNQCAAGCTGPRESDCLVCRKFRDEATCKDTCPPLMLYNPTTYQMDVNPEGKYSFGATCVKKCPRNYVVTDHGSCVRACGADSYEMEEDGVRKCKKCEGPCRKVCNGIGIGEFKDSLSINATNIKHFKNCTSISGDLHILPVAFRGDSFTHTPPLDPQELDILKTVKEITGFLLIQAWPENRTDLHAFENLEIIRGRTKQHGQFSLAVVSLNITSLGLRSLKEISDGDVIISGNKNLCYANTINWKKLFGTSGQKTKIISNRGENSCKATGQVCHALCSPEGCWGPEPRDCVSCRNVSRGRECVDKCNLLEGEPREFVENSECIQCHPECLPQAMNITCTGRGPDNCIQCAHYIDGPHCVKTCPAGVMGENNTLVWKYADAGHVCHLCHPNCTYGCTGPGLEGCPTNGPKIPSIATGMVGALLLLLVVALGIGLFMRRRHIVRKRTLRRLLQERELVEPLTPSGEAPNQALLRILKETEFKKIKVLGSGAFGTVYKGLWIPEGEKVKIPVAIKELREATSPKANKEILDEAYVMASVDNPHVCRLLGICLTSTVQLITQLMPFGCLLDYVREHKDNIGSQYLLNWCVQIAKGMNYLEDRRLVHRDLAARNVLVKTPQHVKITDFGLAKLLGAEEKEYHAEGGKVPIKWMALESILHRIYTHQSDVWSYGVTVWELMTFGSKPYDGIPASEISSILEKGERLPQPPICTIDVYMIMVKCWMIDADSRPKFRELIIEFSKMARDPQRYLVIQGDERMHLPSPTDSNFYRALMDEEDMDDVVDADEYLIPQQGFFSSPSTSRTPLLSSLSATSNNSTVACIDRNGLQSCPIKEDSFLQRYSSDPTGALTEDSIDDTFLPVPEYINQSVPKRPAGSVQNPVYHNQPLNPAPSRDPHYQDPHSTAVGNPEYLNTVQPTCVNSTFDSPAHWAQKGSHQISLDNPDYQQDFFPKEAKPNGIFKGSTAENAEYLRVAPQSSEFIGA
Experimental: as §1

[2] = biological target: T2, Eukaryotic elongation factor-2 kinase (Homo sapiens, UniProt O00418)
T2 construct: gene EEF2K
Summary of the method: as §2

HCK = HCK (Homo sapiens, UniProt P08631)
Summary of the method: as §2

[3] = biological target: T3, IkB kinase beta subunit (IKK BETA) (Homo sapiens, UniProt O14920)
T3 construct: gene IKBKB
Summary of the method: as §2

JNK2 = biological target: T4, JNK2 (Homo sapiens, UniProt P45984)
T4 construct: gene MAPK9
Experimental: as §1

MAPK12 = MAPK12 (Homo sapiens, UniProt P53778)
Summary of the method: as §2

MAPKAPK5 = MAPKAPK5 (Homo sapiens, UniProt Q8IW41)
Summary of the method: as §2

MKNK1 = MKNK1 (Homo sapiens, UniProt Q9BUB5)
Summary of the method: as §2

MSK1 = biological target: T5, MSK1 (Homo sapiens, UniProt O75582)
T5 construct: gene RPS6KA5
Summary of the method: as §2

MST4 = biological target: T6, MST4 (Homo sapiens, UniProt Q9P289)
T6 construct: gene STK26
Experimental: as §1

NEK6 = NEK6 (Homo sapiens, UniProt Q9HC98)
Chain of NEK6 (Q9HC98 whole entry): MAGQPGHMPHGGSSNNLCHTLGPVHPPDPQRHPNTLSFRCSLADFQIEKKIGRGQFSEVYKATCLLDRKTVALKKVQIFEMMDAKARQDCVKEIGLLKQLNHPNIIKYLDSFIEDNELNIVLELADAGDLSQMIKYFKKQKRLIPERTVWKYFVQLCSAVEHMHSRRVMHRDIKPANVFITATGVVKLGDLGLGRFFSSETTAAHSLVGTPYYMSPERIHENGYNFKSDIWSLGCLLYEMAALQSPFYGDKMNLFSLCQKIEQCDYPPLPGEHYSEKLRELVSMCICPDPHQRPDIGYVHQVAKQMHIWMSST
Summary of the method: as §2

NUAK1 = NUAK1 (Homo sapiens, UniProt O60285)
Summary of the method: as §2

PRKDC = PRKDC (Homo sapiens, UniProt P78527)
Summary of the method: as §2

ROCK1 = ROCK1 (Homo sapiens, UniProt Q13464)
Chain of ROCK1 (Q13464 whole entry): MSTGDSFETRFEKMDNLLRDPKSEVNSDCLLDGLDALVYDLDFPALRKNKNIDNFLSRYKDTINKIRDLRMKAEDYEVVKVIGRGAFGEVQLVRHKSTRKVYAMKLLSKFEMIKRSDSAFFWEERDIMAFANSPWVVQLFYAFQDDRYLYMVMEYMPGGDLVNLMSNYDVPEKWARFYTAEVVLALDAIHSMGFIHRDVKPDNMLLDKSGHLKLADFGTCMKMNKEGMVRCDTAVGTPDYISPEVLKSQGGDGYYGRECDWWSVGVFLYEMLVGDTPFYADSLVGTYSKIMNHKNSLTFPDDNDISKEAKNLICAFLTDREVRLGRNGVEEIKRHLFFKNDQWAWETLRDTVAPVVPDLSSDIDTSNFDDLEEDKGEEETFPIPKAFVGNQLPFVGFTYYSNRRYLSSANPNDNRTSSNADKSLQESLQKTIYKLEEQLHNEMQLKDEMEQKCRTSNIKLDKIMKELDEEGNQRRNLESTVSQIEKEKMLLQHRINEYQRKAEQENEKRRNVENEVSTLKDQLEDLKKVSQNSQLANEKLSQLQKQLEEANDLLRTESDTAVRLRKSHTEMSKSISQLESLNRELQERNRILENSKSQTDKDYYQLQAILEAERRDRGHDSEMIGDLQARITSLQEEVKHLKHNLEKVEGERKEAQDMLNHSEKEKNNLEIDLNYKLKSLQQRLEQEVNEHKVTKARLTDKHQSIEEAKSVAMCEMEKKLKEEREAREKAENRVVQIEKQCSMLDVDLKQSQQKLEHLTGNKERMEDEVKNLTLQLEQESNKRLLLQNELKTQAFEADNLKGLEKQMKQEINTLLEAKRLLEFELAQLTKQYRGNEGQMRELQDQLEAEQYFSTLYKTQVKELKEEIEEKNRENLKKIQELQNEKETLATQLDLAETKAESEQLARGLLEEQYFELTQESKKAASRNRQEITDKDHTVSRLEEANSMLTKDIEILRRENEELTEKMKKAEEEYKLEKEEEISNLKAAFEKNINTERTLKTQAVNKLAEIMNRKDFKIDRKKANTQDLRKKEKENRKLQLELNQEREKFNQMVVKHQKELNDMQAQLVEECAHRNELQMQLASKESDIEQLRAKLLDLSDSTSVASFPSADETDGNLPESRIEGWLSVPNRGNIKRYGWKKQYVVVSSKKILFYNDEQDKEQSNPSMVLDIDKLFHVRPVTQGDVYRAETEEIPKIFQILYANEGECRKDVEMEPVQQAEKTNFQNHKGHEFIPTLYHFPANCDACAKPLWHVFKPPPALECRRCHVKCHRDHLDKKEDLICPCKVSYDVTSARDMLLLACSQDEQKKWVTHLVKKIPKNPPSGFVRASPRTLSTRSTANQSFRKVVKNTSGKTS
Experimental: as §1

SGK1 = biological target: T7, SGK1 (Homo sapiens, UniProt O00141)
T7 sequence (O00141 1-431): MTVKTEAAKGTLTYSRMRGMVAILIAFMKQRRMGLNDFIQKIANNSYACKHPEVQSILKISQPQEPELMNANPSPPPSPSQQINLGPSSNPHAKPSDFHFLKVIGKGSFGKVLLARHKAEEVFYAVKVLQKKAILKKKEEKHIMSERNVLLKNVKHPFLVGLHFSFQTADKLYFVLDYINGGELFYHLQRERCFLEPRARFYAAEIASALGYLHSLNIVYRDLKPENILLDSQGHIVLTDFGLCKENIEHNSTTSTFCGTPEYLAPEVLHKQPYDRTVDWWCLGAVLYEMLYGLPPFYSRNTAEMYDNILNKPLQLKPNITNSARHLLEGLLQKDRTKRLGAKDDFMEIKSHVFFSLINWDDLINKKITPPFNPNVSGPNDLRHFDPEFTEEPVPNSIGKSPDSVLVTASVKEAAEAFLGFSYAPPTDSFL
Experimental: as §1

SRC = SRC (Homo sapiens, UniProt P12931)
Chain of SRC (P12931 whole entry): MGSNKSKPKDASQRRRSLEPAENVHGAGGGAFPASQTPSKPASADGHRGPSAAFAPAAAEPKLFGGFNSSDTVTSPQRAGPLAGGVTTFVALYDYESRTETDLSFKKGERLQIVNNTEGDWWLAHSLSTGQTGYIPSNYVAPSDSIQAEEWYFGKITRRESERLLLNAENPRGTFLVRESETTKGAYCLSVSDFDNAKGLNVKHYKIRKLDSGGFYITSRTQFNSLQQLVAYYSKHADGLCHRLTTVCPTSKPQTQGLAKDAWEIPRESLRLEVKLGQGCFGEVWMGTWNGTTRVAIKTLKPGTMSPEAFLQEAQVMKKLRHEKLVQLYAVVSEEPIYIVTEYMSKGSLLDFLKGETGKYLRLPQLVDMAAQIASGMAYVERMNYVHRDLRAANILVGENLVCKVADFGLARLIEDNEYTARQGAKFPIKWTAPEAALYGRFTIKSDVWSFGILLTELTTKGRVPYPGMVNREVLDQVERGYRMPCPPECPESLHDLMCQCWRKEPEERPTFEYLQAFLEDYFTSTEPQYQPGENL
Experimental: as §1

SRPK1 = SRPK1 (Homo sapiens, UniProt Q96SB4)
Summary of the method: as §2

mTOR = mTOR (Homo sapiens, UniProt P42345)
Summary of the method: as §2

mixed lineage kinase 1 = biological target: T8, mixed lineage kinase 1 (Homo sapiens, UniProt P80192)
T8 construct: gene MAP3K9
Summary of the method: as §2

Chain of ABL1 (P00519 whole entry): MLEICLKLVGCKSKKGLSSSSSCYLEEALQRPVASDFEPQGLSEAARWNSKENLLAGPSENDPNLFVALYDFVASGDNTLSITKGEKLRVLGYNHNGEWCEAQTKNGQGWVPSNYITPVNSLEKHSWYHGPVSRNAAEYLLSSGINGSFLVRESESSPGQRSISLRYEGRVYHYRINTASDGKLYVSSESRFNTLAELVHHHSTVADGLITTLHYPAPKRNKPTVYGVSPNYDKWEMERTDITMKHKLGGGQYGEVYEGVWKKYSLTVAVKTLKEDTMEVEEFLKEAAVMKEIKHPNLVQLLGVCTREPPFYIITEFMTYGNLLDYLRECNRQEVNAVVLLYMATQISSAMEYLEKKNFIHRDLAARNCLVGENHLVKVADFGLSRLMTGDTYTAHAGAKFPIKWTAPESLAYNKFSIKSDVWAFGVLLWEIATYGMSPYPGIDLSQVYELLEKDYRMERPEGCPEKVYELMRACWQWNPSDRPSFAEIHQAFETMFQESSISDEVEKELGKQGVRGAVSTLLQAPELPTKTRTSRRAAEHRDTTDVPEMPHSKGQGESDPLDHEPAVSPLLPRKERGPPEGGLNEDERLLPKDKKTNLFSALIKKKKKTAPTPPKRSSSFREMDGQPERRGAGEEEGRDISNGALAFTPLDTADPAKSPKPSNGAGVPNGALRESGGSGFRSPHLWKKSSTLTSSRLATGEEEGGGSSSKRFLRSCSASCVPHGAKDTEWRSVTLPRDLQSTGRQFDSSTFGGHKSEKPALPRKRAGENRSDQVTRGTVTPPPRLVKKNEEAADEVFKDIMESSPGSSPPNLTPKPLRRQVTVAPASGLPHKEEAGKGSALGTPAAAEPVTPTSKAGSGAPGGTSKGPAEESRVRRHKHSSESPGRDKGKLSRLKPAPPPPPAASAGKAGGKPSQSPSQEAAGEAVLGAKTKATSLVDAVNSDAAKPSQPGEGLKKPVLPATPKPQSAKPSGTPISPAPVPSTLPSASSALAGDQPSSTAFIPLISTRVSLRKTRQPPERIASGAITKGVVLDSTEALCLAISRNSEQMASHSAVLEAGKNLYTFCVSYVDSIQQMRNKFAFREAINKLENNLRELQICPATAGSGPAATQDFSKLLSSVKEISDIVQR

SMILES: O=C(O)c1sc2cc(F)sc2c1Cl [PF-07208254, 3-chloro-5-fluorothieno[3,2-b]thiophene-2-carboxylic acid]
- ATP = 1 mM % Inhibition PF-07208254 (ABL1): -0.5%
- ATP = Km % Inhibition PF-07208254 (ABL1): 9.0%
- ATP = Km % Inhibition PF-07208254 (AURKB): 3.0%
- ATP = 1 mM % Inhibition PF-07208254 (CAMK2A): -0.3%
- ATP = Km % Inhibition PF-07208254 (CAMK2A): 6.8%
- ATP = 1 mM % Inhibition PF-07208254 (CDK2/Cyclin-A): -1.2%
- ATP = Km % Inhibition PF-07208254 (CDK2/Cyclin-A): 14.6%
- ATP = 1 mM % Inhibition PF-07208254 [1]: -7.2%
- ATP = Km % Inhibition PF-07208254 [1]: -0.9%
- ATP = Km % Inhibition PF-07208254 [2]: 2.3%
- ATP = Km % Inhibition PF-07208254 (HCK): 9.9%
- ATP = Km % Inhibition PF-07208254 [3]: 4.8%
- ATP = 100 uM % Inhibition PF-07208254 (JNK2): -3.0%
- ATP = Km % Inhibition PF-07208254 (MAPK12): 13.3%
- ATP = Km % Inhibition PF-07208254 (MAPKAPK5): 6.6%
- ATP = Km % Inhibition PF-07208254 (MKNK1): 15.1%
- ATP = Km % Inhibition PF-07208254 (MSK1): 2.7%
- ATP = 1 mM % Inhibition PF-07208254 (MST4): 3.7%
- ATP = Km % Inhibition PF-07208254 (MST4): 16.7%
- ATP = Km % Inhibition PF-07208254 (NEK6): 7.1%
- ATP = Km % Inhibition PF-07208254 (NUAK1): 10.3%
- ATP = Km % Inhibition PF-07208254 (PRKDC): 8.3%
- ATP = 1 mM % Inhibition PF-07208254 (ROCK1): 0.8%
- ATP = Km % Inhibition PF-07208254 (ROCK1): 3.6%
- ATP = 1 mM % Inhibition PF-07208254 (SGK1): 1.9%
- ATP = Km % Inhibition PF-07208254 (SGK1): -0.1%
- ATP = 1 mM % Inhibition PF-07208254 (SRC): -4.8%
- ATP = Km % Inhibition PF-07208254 (SRC): 5.6%
- ATP = Km % Inhibition PF-07208254 (SRPK1): 2.8%
- ATP = Km % Inhibition PF-07208254 (mTOR): 5.1%
- ATP = Km % Inhibition PF-07208254 (mixed lineage kinase 1): 3.2%

SMILES: CCC1(COc2ccc(-c3csc(-c4ccccc4C(=O)O)n3)cn2)CC1 [PF-07247685, 2-(4-{6-[(1-ethylcyclopropyl)methoxy]pyridin-3-yl}-1,3-thiazol-2-yl)benzoic acid]
- ATP = 1 mM % Inhibition PF-07247685 (ABL1): 0.9%
- ATP = Km % Inhibition PF-07247685 (ABL1): 5.1%
- ATP = Km % Inhibition PF-07247685 (AURKB): 17.3%
- ATP = 1 mM % Inhibition PF-07247685 (CAMK2A): 3.5%
- ATP = Km % Inhibition PF-07247685 (CAMK2A): 2.8%
- ATP = 1 mM % Inhibition PF-07247685 (CDK2/Cyclin-A): -1.4%
- ATP = Km % Inhibition PF-07247685 (CDK2/Cyclin-A): 1.2%
- ATP = 1 mM % Inhibition PF-07247685 [1]: 1.2%
- ATP = Km % Inhibition PF-07247685 [1]: -2.6%
- ATP = Km % Inhibition PF-07247685 [2]: -1.5%
- ATP = Km % Inhibition PF-07247685 (HCK): 4.5%
- ATP = Km % Inhibition PF-07247685 [3]: -0.0%
- ATP = 100 uM % Inhibition PF-07247685 (JNK2): 4.3%
- ATP = Km % Inhibition PF-07247685 (MAPK12): 4.6%
- ATP = Km % Inhibition PF-07247685 (MAPKAPK5): 2.3%
- ATP = Km % Inhibition PF-07247685 (MKNK1): 0.5%
- ATP = Km % Inhibition PF-07247685 (MSK1): -1.4%
- ATP = 1 mM % Inhibition PF-07247685 (MST4): -2.9%
- ATP = Km % Inhibition PF-07247685 (MST4): 2.9%
- ATP = Km % Inhibition PF-07247685 (NEK6): 1.2%
- ATP = Km % Inhibition PF-07247685 (NUAK1): -18.2%
- ATP = Km % Inhibition PF-07247685 (PRKDC): 5.4%
- ATP = 1 mM % Inhibition PF-07247685 (ROCK1): -0.9%
- ATP = Km % Inhibition PF-07247685 (ROCK1): 2.4%
- ATP = 1 mM % Inhibition PF-07247685 (SGK1): -5.1%
- ATP = Km % Inhibition PF-07247685 (SGK1): 0.7%
- ATP = 1 mM % Inhibition PF-07247685 (SRC): -1.0%
- ATP = Km % Inhibition PF-07247685 (SRC): 17.3%
- ATP = Km % Inhibition PF-07247685 (SRPK1): 12.6%
- ATP = Km % Inhibition PF-07247685 (mTOR): 0.4%
- ATP = Km % Inhibition PF-07247685 (mixed lineage kinase 1): 6.3%
